These results are taken from patent US9884063B2, “Amido-substituted azole compounds” (Bayer Pharma Aktiengesellschaft, priority 2014, dated 2018).

Assay [1] has as its target T1, TNKS2 (Homo sapiens, UniProt Q9H2K2).
T1 sequence (Q9H2K2 1-1166): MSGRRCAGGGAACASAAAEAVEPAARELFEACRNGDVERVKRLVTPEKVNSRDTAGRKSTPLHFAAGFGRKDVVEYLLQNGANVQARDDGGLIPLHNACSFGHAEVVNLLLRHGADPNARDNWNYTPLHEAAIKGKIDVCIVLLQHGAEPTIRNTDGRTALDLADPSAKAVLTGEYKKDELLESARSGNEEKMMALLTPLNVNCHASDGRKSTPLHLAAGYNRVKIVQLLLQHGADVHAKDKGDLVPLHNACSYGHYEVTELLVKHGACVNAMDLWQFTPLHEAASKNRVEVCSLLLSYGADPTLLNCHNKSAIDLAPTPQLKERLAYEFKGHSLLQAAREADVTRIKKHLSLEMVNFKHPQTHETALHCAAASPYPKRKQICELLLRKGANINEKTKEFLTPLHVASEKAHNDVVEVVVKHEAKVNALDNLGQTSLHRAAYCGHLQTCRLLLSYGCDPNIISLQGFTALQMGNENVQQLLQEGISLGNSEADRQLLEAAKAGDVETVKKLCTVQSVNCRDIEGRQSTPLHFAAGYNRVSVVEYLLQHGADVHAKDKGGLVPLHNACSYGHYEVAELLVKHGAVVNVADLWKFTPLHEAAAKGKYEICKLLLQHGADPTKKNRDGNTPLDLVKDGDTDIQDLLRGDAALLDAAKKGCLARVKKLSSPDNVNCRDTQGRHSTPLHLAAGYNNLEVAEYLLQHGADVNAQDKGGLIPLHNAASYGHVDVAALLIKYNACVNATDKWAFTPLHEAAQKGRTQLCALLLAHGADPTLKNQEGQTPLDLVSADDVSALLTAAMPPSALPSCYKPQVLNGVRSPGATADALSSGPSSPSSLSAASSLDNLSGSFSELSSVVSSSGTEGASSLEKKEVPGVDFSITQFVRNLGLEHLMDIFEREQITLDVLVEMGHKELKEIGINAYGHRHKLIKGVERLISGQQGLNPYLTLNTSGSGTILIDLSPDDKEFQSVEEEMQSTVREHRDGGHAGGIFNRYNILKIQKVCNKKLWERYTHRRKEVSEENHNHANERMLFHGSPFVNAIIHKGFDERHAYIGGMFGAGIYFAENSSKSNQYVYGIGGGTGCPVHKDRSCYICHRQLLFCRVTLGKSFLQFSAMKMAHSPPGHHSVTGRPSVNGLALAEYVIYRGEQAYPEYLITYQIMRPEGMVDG
As to the kind of experiment: Modified TNKS2 Assay 3 (BPS kit #80578, biotin-NAD+, 96 well). In kind it is biochemical. The note with it: human TNKS2, BPS kit #80578, 96 well. The gist of the method:
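Commercial kit assay measuring TNKS2-catalysed incorporation of biotin-labelled NAD+ into a protein substrate, detected by streptavidin-HRP chemiluminescence. Run per manufacturer's protocol; IC50 is the concentration halving the normalised signal.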

For assay [2], the system named is HEK293 FOP control reporter cell line. As to the kind of experiment: HEK293 FOP Assay (FOP control vector luciferase reporter). Format: cell-based. Conditions: Homo sapiens. In short, it runs like this:
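Compound series 50 μM to 15 nM, 3.16-fold steps, were diluted in CAFTY buffer (pH 7.4, 2 mM Ca2+, 0.01% BSA) and tested alongside the TOP reporter line. Human Wnt-3a was added at 2500–5 ng/ml in two-fold steps. The control HEK293 line stably holds an FOP vector whose TCF elements are randomized and non-functional.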

For assay [3], the system named is wildtype Wnt signaling cascade. Briefly: HEK293 TOP Assay (Super TopFlash luciferase reporter, Wnt-3a stimulated). In kind it is cell-based. Conditions: Homo sapiens, HEK293, 16 h. The gist of the method: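 Compounds (50 μM down to 15 nM, 3.16-fold steps, in CAFTY buffer pH 7.4, 2 mM Ca2+, 0.01% BSA) tested in parallel on TOP and FOP HEK293 reporter lines to define selective wildtype Wnt inhibition. Pathway driven by recombinant human Wnt-3a applied at 2500–5 ng/ml in two-fold dilutions.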

The mark [4] stands for this setting: HEK293 FOP control reporter cell line, 16 hours incubation, compound dilution series 50 μM to 15 nM.
Setting [5] is: HEK293 TOP reporter cell line, Wnt-3a at EC50, 16 hours incubation, compound dilution series 50 μM to 15 nM.

With `O=C(Nc1ccc(NC(=O)c2nc[nH]c2C(=O)NCCN2CCC(F)CC2)cc1)c1ccc(F)cc1Cl` [Example 230, N^4-{4-[(2-chloro-4-fluorobenzoyl)amino]phenyl}-N^5-[2-(4-fluoropiperidin-1-yl)ethyl]-1H-imidazole-4,5-dicarboxamide], the IC50 came out at 20 nM in assay [1], 27000 nM in assay [2] (setting [4]) and 200 nM in assay [3] (setting [5]).

For `COC(=O)c1nc[nH]c1C(=O)Nc1ccc(NC(=O)c2ccc(F)cc2Cl)cc1` [Example 13, Methyl 5-({4-[(2-chloro-4-fluorobenzoyl)amino]phenyl}carbamoyl)-1H-imidazole-4-carboxylate], the IC50 is 20 nM in assay [1]; 25000 nM in assay [2] (setting [4]); 25000 nM in assay [2] (HEK293 FOP control reporter cells, 16 hours, luciferase, dilution series from 50 μM); 130 nM in assay [3] (setting [5]); 130 nM in assay [3] (HEK293 TOP reporter cells, Wnt3a at EC50, 16 hours, luciferase).

Regarding `O=C(Nc1ccc(NC(=O)c2[nH]cnc2C(=O)NC2CC2)cc1)c1ccc(F)cc1Cl` [Example 45, N^5-{4-[(2-chloro-4-fluorobenzoyl)amino]phenyl}-N^4-cyclopropyl-1H-imidazole-4,5-dicarboxamide], the IC50 came out at 40 nM in assay [1], 40000 nM in assay [2] (setting [4]) and 190 nM in assay [3] (setting [5]).
